Results on one compound are retold here after PubChem BioAssay (NCI).

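Method: 48-hour compound exposure of cells in 96-well plates, five concentrations, linear interpolation of endpoints. Here, GI50 denotes the concentration required for 50% inhibition of growth. TGI denotes the concentration required for complete inhibition of growth.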 A value given as a limit tells only on which side of the number the result lay.

Some test systems named below: A549 NSCLC; COLO 205 colon; NCI-H23 lung; MALME-3M melanoma; RXF 393 renal; SK-MEL-28 melanoma; SK-MEL-5 melanoma; EKVX NSCLC; IGROV1 ovarian; OVCAR-3 ovarian.
Common to all, as to test: growth of human tumour cells (NCI), 48 h

Consider `COc1ccc(-c2nn(-c3ccc(NC(=O)Nc4ccc(Cl)c(Cl)c4)cc3)cc2-c2ccncc2)cc1Cl`, for which the GI50 in the experiment on A549 NSCLC is 1560 nM; in the experiment on COLO 205 colon, 2190 nM; in the experiment with NCI-H23 lung it was 2220 nM; in the experiment on MALME-3M melanoma it was 2470 nM; with RXF 393 renal it was 862 nM; with SK-MEL-28 melanoma, 2700 nM. Besides, the GI50 in the experiment with SK-MEL-5 melanoma was 2260 nM; in the experiment on EKVX NSCLC it was 2180 nM; in the experiment with IGROV1 ovarian it was 3440 nM; in the experiment with OVCAR-3 ovarian, 2640 nM. In addition, the TGI was greater than 100000 nM in the experiment with A549 NSCLC; 5270 nM in the experiment on COLO 205 colon; greater than 100000 nM in the experiment on NCI-H23 lung; 8470 nM in the experiment on MALME-3M melanoma; 2890 nM in the experiment on RXF 393 renal; 68200 nM with SK-MEL-28 melanoma. The TGI was 5960 nM in the experiment on SK-MEL-5 melanoma, greater than 100000 nM in the experiment with EKVX NSCLC, greater than 100000 nM with IGROV1 ovarian and greater than 100000 nM with OVCAR-3 ovarian.
